These results are taken from US12344610B2, “APOL1 inhibitors and methods of use” (Maze Therapeutics, Inc., priority 2022, dated 2025).

Read-outs that look alike come from different tables or passages of the source.

Holding throughout (type): cell-based
Assay [1] deals with Trypanosoma brucei Lister 427 VSG221 with APOL1 G2 recombinant protein. Put plainly: APOL1 G2 trypanosome cell rescue assay (Example B5). To be noted: Trypanosoma brucei, 20 h, read-out: APOL1 G2 Trypanosome Rescue EC50, Trypanosoma brucei Lister 427 VSG221 with APOL1 G2 recombinant protein, 20 hours, CellTiter-Glo; geometric mean of at least 2 assay runs; † = single assay run. Here is the method: (§1) APOL1 G0/G1/G2 viability assay for measurement of cytotoxicity reversal by compound in trypanosomes (APOL1 G0/G1/G2 trypanosome cell rescue assay).
(§2) APOL1 protein expression and purification. The mature from of APOL1 proteins, residues 28-398, were expressed from a pET28a vector with an N-terminal His-tag and TEV cleavage site. Proteins were expressed in Escherichia coli BL21-CodonPlus (DE3)-RIPL cells. Liter cultures of terrific broth were grown at 37° C. until an OD600 of ˜0.8 was reached and then induced with isopropyl β-D-1-thiogalactopyranoside (IPTG; final concentration of 500 μM). Afterwards, cultures were grown for 3 hours at 37° C. For protein purification, cell pellets were resuspended in lysis buffer (50 mM Tris, pH 8.5, 5 mM EDTA, 0.5 mM DTT, 0.5 mM PMSF) supplemented with a cocktail of protease inhibitors. Cells were lysed by sonication, centrifuged, and the resulting pellet was collected. The homogenized pellet was resuspended in wash buffer (50 mM Tris, pH 8.5, 0.5 M NaCl, 5 mM EDTA, 0.5 mM DTT, 0.5 mM PMSF, protease inhibitor cocktail) and collected by centrifugation. Inclusion body dissolution was then conducted as previously reported (PNAS 112(9) (2015) 2894-2899; www.pnas.org/cgi/doi/10.1073/pnas.1421953112; herein incorporated by reference in its entirety). The solubilized APOL1 protein was applied to a nickel column (HisTrap, GE Life Sciences) preequilibrated in buffer A (50 mM Tris, pH 8.5, 0.15 M NaCl, 1% zwittergent 3-14, protease inhibitor cocktail). The resin was washed with buffer B (50 mM Tris, pH 8.5, 0.15 M NaCl, 0.1% DDM) and TEV cleavage was conducted on column overnight. Afterwards, the column was washed with buffer B, followed by His-washing buffer (50 mM Tris, pH 8.5, 0.15 M NaCl, 0.1% DDM, 10 mM imidazole). The protein was then removed from the resin using His-elution buffer (50 mM Tris, pH 8.5, 0.15 M NaCl, 0.1% DDM, 250 mM imidazole). The sample was further purified by size exclusion chromatography using a Superdex 200 Increase column (GE Life Sciences) in 50 mM Tris, pH 8.5, 0.15 M NaCl, and 0.1% DDM buffer. All APOL1 proteins (G0, G1, and G2) were generated at Viva Biotech (Shanghai) Ltd.
(§3) Modified HMI-9 media preparation (https://tryps.rockefeller.edu/trypsru2_culture_media_preparation.html; herein incorporated by reference in its entirety). Trypanosomes were cultured in modified HMI-9 media consisting of IMDM (ThermoFisher, 12440053), 10% heat-inactivated FBS (Gibco, 10082-147), 10% Serum Plus (Sigma-Aldrich, 14008C), 1×HMI-9 supplement stock, and 1% hypoxanthine stock. The 10×HMI-9 supplement stock was made by dissolving 280 mg bathocuproine disulfonic acid (Sigma-Aldrich, 146625), 1820 mg cysteine (add after bathocuproine) (Sigma-Aldrich, 30089), 1100 mg pyruvic acid (Sigma-Aldrich, 107360), 100 mg uracil (Sigma-Aldrich, U0750), 100 mg cytosine (Sigma-Aldrich, C3506) and 140 μL 2-mercaptoethanol (Sigma-Aldrich, M3148) in 1000 mL of water. The resulting solution was aliquoted and stored at −20° C. The hypoxanthine stock was made by dissolving 4 g of NaOH into 1000 mL of water. Afterwards, 13.6 g hypoxanthine (Sigma-Aldrich, H9377) was added to this mixture. The resulting solution was aliquoted and stored at −20° C.
(§4) Assay Setup. Trypanosoma brucei Lister 427 VSG221 (ATCC, PRA-382) cells were cultured in modified HMI-9 media. All experiments were performed in 384-well, white, solid bottom, tissue culture treated plates (Greiner, 781080). Assay ready plates were generated with duplicate 11-point compound dilution series that consisted of 2-fold stepwise dilutions (0.4% DMSO final). To each well, was added 20 μL of 2 μg/mL of APOL1 G0, G1, or G2 recombinant protein in modified HMI-9 media using a MultiDrop Combi (final APOL1 protein concentration=[…]). Trypanosomes were counted using a hemacytometer and diluted in modified HMI-9 media to a concentration of 1.25×10^4 cell/mL. […]
A general note: Cellular ATP, detected with luciferase, serves as a proxy for viable cell number.

In assay [2] the test system is Trypanosoma brucei Lister 427 VSG221 with APOL1 G0 recombinant protein. Put plainly: APOL1 G0 trypanosome cell rescue assay (Example B5). To be noted: Trypanosoma brucei, 20 h, read-out: APOL1 G0 Trypanosome Rescue EC50, Trypanosoma brucei Lister 427 VSG221 with APOL1 G0 recombinant protein, 20 hours, CellTiter-Glo; geometric mean of at least 2 assay runs; † = single assay run. Here is the method: as §1, §2, §3, §4

Assay [3] relates to HEK293 clonal cell line overexpressing APOL1 G1. Put plainly: APOL1 G1 HEK293 cell rescue assay (Example B3). To be noted: geometric mean of at least 2 runs, † = single run, ¥ = concentration at 50% rescue estimated (no sigmoidal curve). An outline of the steps:
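Rescue of cell death caused by APOL1 G1 overexpression was measured in a clonal HEK293 line. Compounds were tested in duplicate on one plate, and EC50s were geometric means across at least two runs on different days. Some values are estimated 50%-rescue concentrations where curve fitting failed.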

Assay [4] concerns HEK293 cells overexpressing APOL1 G2. As to the kind of experiment: APOL1 G2 HEK293 cell rescue assay (reversal of cell death caused by overexpression of APOL1). To be noted: geometric mean of at least 2 assay runs, † = single assay run. An outline of the steps:
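Each compound tested in duplicate wells on one plate per run, with values usually the geometric mean across at least two runs on different days, occasionally from one run only. Read-out: concentration giving half-maximal rescue of APOL1 G2 overexpression-induced death of HEK293 cells.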

Assay [5] has as its system Trypanosoma brucei Lister 427 VSG221 with APOL1 G1 recombinant protein. As to the kind of experiment: APOL1 G1 trypanosome cell rescue assay (Example B5). To be noted: geometric mean of at least 2 assay runs, † = single assay run. The method, then: as §1, §2, §3, §4
Where [6] appears, read: Homo sapiens, HEK293, HEK293 clonal line overexpressing APOL1 G1.
Setting [7] is: Homo sapiens, HEK293, HEK293 overexpressing APOL1 G2.
Where [8] appears, read: Trypanosoma brucei, 20 h, read-out: APOL1 G1 Trypanosome Rescue EC50, Trypanosoma brucei Lister 427 VSG221 with APOL1 G1 recombinant protein, 20 hours, CellTiter-Glo.

Take `CC1(O)CN(c2ncnc3cc(OCCN4CCC5(CC4)C(=O)Nc4ccc(Cl)cc45)cnc23)C1` [Compound 364, 5-chloro-1′-(2-{[4-(3-hydroxy-3-methylazetidin-1-yl)pyrido[3,2-d]pyrimidin-7-yl]oxy}ethyl)-1,2-dihydrospiro[indole-3,4′-piperidin]-2-one]: the EC50 (as a rule, the midpoint of the concentration-response curve) in assay [1] was 0.0923 µM; in assay [2], 0.155 µM; in assay [3] (setting [6]), 0.239 µM; in assay [4] (setting [7]) it was 0.112 µM; in assay [5] (setting [8]), 0.203 µM.
Take `O=C(c1ccc(OCCN2CCC3(CC2)C(=O)N(CCO)c2ccc(Cl)cc23)cc1C(F)(F)F)N1CCS(=O)(=O)CC1` [Compound 271, 4-(4-{2-[5-chloro-1-(2-hydroxyethyl)-2-oxo-1,2-dihydrospiro[indole-3,4′-piperidin]-1′-yl]ethoxy}-2-(trifluoromethyl)benzoyl)-1λ^6-thiomorpholine-1,1-dione]: the EC50 in assay [1] is 0.0159 µM; in assay [2] it was 0.051 µM; in assay [3] (setting [6]), 0.34 µM; in assay [4] (setting [7]) it was 0.152 µM; in assay [5] (setting [8]) it was 0.0507 µM.
On the same counts, the results for `CC1(O)CC(n2ncc3cc(OCCN4CCC5(CC4)C(=O)Nc4ccc(Cl)cc45)cnc32)C1` (centres unmarked) [Compound 407, 5-chloro-1′-(2-{[1-(3-hydroxy-3-methylcyclobutyl)-1H-pyrazolo[3,4-b]pyridin-5-yl]oxy}ethyl)-1,2-dihydrospiro[indole-3,4′-piperidin]-2-one] are 0.033 µM, 0.0724 µM, 0.0463 µM, 0.0241 µM and 0.0997 µM.
As for `O=C(NC1CCS(=O)(=O)C1)c1ccc(OCCN2CCC3(CC2)C(=O)Nc2ccc(Cl)cc23)cc1F` (centres unmarked) [Compound 241, 4-(2-{5-chloro-2-oxo-1,2-dihydrospiro[indole-3,4′-piperidin]-1′-yl}ethoxy)-N-(1,1-dioxo-1λ^6-thiolan-3-yl)-2-fluorobenzamide], the 50% effective concentration (EC50) in assay [1] was 0.0633 µM; in assay [2], 0.177 µM; in assay [3] (setting [6]), 0.217 µM; in assay [4] (setting [7]) it was 0.0721 µM; in assay [5] (setting [8]) it was 0.258 µM.
Consider `CC1(O)CC(CN2C(=O)CCc3cc(OCCN4CCC5(CC4)C(=O)Nc4ccc(Cl)cc45)cnc32)C1` (single isomer, unassigned) [Compound 313, 5-chloro-1′-{2-[(7-oxo-8-{[(cis) or (trans)-3-hydroxy-3-methylcyclobutyl]methyl}-5,6,7,8-tetrahydro-1,8-naphthyridin-3-yl)oxy]ethyl}-1,2-dihydrospiro[indole-3,4′-piperidin]-2-one], for which the EC50 in assay [1] was 0.0202 µM; in assay [2] it was 0.0545 µM; in assay [3] (HEK293 clonal line overexpressing APOL1 G1), 0.135 µM; in assay [4] (HEK293 overexpressing APOL1 G2) it was 0.0633 µM; in assay [5] (read-out: APOL1 G1 Trypanosome Rescue EC50, Trypanosoma brucei Lister 427 VSG221 with APOL1 G1 recombinant protein, 20 hours, CellTiter-Glo), 0.0718 µM.
For the compound `O=C1CCc2cc(OCCN3CCC4(CC3)C(=O)Nc3ccc(Cl)cc34)cnc2N1[C@H]1C[C@](O)(C2CC2)C1` (single isomer, unassigned) [Compound 398, 5-chloro-1′-[2-({7-oxo-8-[(cis)-3-cyclopropyl-3-hydroxycyclobutyl]-5,6,7,8-tetrahydro-1,8-naphthyridin-3-yl}oxy)ethyl]-1,2-dihydrospiro[indole-3,4′-piperidin]-2-one], the EC50 in assay [1] was 0.018 µM; in assay [2], 0.0536 µM; in assay [3] (setting [6]), 0.374 µM; in assay [4] (setting [7]) it was 0.0201 µM; in assay [5] (setting [8]), 0.0522 µM.
For `O=C1Nc2ccc(Cl)cc2C12CCN(CCOc1cnc3c(N4CC(O)C4)ncnc3c1)CC2` [Compound 366, 5-chloro-1′-(2-{[4-(3-hydroxyazetidin-1-yl)pyrido[3,2-d]pyrimidin-7-yl]oxy}ethyl)-1,2-dihydrospiro[indole-3,4′-piperidin]-2-one], the EC50 is 0.0324 µM in assay [1]; 0.0664 µM in assay [2]; 0.136 µM in assay [3] (setting [6]); 0.08 µM in assay [4] (setting [7]); 0.0873 µM in assay [5] (setting [8]).
